According to the supplement of paper PMC10307832:

Experiments:
Experiment in all cases: relative viability (nuclei count vs DMSO), 5 days (fraction); higher = more cells survive
Ruxolitinib + Trametinib = compound: N#CC[C@H](C1CCCC1)n1cc(-c2ncnc3[nH]ccc23)cn1 [Ruxolitinib] + CC(=O)Nc1cccc(-n2c(=O)n(C3CC3)c(=O)c3c(Nc4ccc(I)cc4F)n(C)c(=O)c(C)c32)c1 [Trametinib] (partner 0.02 µM)
Method in brief: (§1)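 Relative viability was taken as the ratio of nuclei in treated wells to nuclei in vehicle wells. Lung cancer cell lines in 1536-well plates received compounds by pin tool one day after seeding, either one drug alone or a fixed anchor-drug dose plus five library-drug doses (not always all listed) in √10 steps. Nuclei were counted on 4× images after 5 days of treatment, and values are medians of duplicate plates.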

Vismodegib + Alpelisib = compound: CS(=O)(=O)c1ccc(C(=O)Nc2ccc(Cl)c(-c3ccccn3)c2)c(Cl)c1 [Vismodegib] + Cc1nc(NC(=O)N2CCC[C@H]2C(N)=O)sc1-c1ccnc(C(C)(C)C(F)(F)F)c1 [Alpelisib] (partner 2 µM)
Method in brief: as §1

Vismodegib + Navitoclax = compound: CS(=O)(=O)c1ccc(C(=O)Nc2ccc(Cl)c(-c3ccccn3)c2)c(Cl)c1 [Vismodegib] + CC1(C)CCC(c2ccc(Cl)cc2)=C(CN2CCN(c3ccc(C(=O)NS(=O)(=O)c4ccc(N[C@H](CCN5CCOCC5)CSc5ccccc5)c(S(=O)(=O)C(F)(F)F)c4)cc3)CC2)C1 [Navitoclax] (partner 0.5 µM)
Method in brief: as §1

VE-821 + Foretinib = compound: CS(=O)(=O)c1ccc(-c2cnc(N)c(C(=O)Nc3ccccc3)n2)cc1 [VE-821] + COc1cc2c(Oc3ccc(NC(=O)C4(C(=O)Nc5ccc(F)cc5)CC4)cc3F)ccnc2cc1OCCCN1CCOCC1 [Foretinib] (partner 0.25 µM)
Method in brief: as §1

Cell Line	relative viability (Ruxolitinib + Trametinib; first compound 0.08 µM)	relative viability (Ruxolitinib + Trametinib; first compound 0.253 µM)	relative viability (Ruxolitinib + Trametinib; first compound 0.8 µM)	relative viability (Ruxolitinib + Trametinib; first compound 2.53 µM)	relative viability (Ruxolitinib + Trametinib; first compound 8 µM)	relative viability (Vismodegib + Alpelisib; first compound 0.08 µM)	relative viability (Vismodegib + Alpelisib; first compound 0.253 µM)	relative viability (Vismodegib + Alpelisib; first compound 0.8 µM)	relative viability (Vismodegib + Alpelisib; first compound 2.53 µM)	relative viability (Vismodegib + Alpelisib; first compound 8 µM)	relative viability (Vismodegib + Navitoclax; first compound 0.08 µM)	relative viability (Vismodegib + Navitoclax; first compound 0.253 µM)	relative viability (Vismodegib + Navitoclax; first compound 0.8 µM)	relative viability (Vismodegib + Navitoclax; first compound 2.53 µM)	relative viability (Vismodegib + Navitoclax; first compound 8 µM)	relative viability (VE-821 + Foretinib; first compound 0.08 µM)	relative viability (VE-821 + Foretinib; first compound 0.253 µM)	relative viability (VE-821 + Foretinib; first compound 0.8 µM)	relative viability (VE-821 + Foretinib; first compound 2.53 µM)	relative viability (VE-821 + Foretinib; first compound 8 µM)
NCI-H2085	0.639	0.548	0.624	0.483	0.575	0.899	0.841	0.992	0.931	0.962	1.11	1.06	1.12	1.06	1.12	1.05	0.915	0.863	1.01	0.812
NCI-H2087	0.173	–	0.22	0.263	0.27	1.02	1.07	1.05	1	0.995	0.952	0.969	0.961	0.954	0.943	1.12	0.982	1.22	1.33	1
NCI-H2126	0.559	0.543	0.607	0.58	0.664	0.681	0.734	0.782	0.686	0.706	0.838	0.846	0.864	0.802	0.766	1.38	1.1	1.21	1.1	0.764
NCI-H2170	0.868	0.895	0.879	0.867	0.933	0.836	0.814	0.872	0.836	0.794	0.683	0.602	0.755	0.473	0.617	1.01	0.972	0.952	0.958	0.798
NCI-H2228	0.229	0.861	0.62	0.24	0.144	0.643	0.952	0.606	0.622	0.758	0.838	1.1	0.932	0.741	0.901	0.945	0.849	0.946	0.749	0.567
NCI-H2347	0.296	0.272	0.287	0.247	0.334	0.966	0.994	0.91	1.02	1.1	0.735	0.821	0.766	0.763	0.792	0.542	0.995	0.633	1.03	0.946
NCI-H2405	0.674	0.66	0.725	0.428	0.398	–	0.81	0.676	0.603	0.875	–	0.93	0.86	0.712	0.904	1.09	1.06	0.993	1.09	1.12
